Results taken from ChEMBL document CHEMBL1811863, “New 5-deoxyflavonoids and their inhibitory effects on protein tyrosine phosphatase 1B (PTP1B) activity” (Bioorg Med Chem, 2011).

Target: T1, Tyrosine-protein phosphatase non-receptor type 1 (Homo sapiens, UniProt P18031)
T1 sequence (P18031 whole entry): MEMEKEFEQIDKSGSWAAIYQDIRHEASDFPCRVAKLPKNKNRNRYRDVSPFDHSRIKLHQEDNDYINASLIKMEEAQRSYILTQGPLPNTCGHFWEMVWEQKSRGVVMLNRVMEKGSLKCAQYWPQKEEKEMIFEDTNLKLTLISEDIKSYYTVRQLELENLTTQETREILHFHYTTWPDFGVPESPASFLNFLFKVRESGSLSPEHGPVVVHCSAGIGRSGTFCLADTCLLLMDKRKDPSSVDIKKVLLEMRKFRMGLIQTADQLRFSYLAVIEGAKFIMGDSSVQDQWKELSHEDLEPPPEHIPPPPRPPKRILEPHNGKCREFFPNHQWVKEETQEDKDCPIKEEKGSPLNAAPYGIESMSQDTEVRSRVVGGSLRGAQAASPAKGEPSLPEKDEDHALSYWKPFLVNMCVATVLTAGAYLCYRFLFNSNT
Assay: Inhibition of human recombinant PTP1B assessed as p-nitorphenol production after 30 mins

IC50 [µM] | Compound
98.1 | COc1cc([C@@H]2CC(=O)c3ccc(O)cc3O2)ccc1O
16.5 | COc1ccc(C2CC(=O)c3ccc(O)cc3O2)cc1CC=C(C)C (configuration not stated)
29.2 | CC(C)=CCc1cc([C@@H]2CC(=O)c3ccc(O)cc3O2)ccc1O [ABYSSINONE II]
22.6 | CC(C)=CCc1cc([C@@H]2CC(=O)c3c(O)cc(O)cc3O2)cc(CC=C(C)C)c1O [ABYSSINONE V]
72.9 | CC(C)=CCc1cc([C@@H]2CC(=O)c3ccc(O)cc3O2)cc2c1OC(C)(C)C=C2 [ABYSSINONES III]
15.2 | COc1cc(OC)c([C@H]2COc3cc(O)ccc3C2=O)cc1CC=C(C)C [ERYTHRIBYSSIN E]
35.8 | CC(C)=CCc1cc([C@@H]2CC(=O)c3ccc(O)cc3O2)cc2c1OC(C)(C)C(O)C2 (some centres not stated) [ERYTHRIBYSSIN G]
> 100 | CC1(C)Oc2ccc([C@@H]3CC(=O)c4ccc(O)cc4O3)cc2CC1O (some centres not stated) [ERYTHRIBYSSIN I]
14.9 | COc1cc(O)c([C@]2(O)COc3cc(O)ccc3C2=O)cc1CC=C(C)C [ERYTHRIBYSSIN J]
> 100 | O=Cc1cc([C@@H]2CC(=O)c3ccc(O)cc3O2)ccc1O [ERYTHRIBYSSIN K]
> 100 | O=C1C[C@@H](c2ccc(O)cc2)Oc2cc(O)ccc21 [LIQUIRTIGENIN]
17.2 | COc1cc(O)c(C2COc3cc(O)ccc3C2=O)cc1CC=C(C)C (configuration not stated) [PROSTRATOL C]
